In ChEMBL document CHEMBL1201862, “PubChem BioAssay data set” (2004):
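Step 1: Grow cells in 96-well plates. Step 2: Expose to compound for 48 hours at 5 concentrations. Step 3: Interpolate endpoints linearly; if unreached, use highest concentration. GI50 marks 50% less growth.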 Activity calls are given as the source filed them. Rule as the data show it: active = GI50 up to about 1.1 µM and inactive = higher.

Tests used:
Experiment in all cases: NCI anticancer screen, dose series, 48 h
[1] = system: A498
[2] = system: BT-549
[3] = system: COLO 205
[4] = system: EKVX
[5] = system: MDA-MB-231
[6] = system: MDA-MB-435
[7] = system: NCI-H226
[8] = system: OVCAR-3
[9] = system: OVCAR-4
[10] = system: OVCAR-5
[11] = system: OVCAR-8
[12] = system: RPMI-8226
[13] = system: SK-MEL-28
[14] = system: SK-MEL-5
[15] = system: SNB-19
[16] = system: SW-620
[17] = system: T47D
[18] = system: U-251
[19] = system: UACC-257
[20] = system: HCC 2998

Row | SMILES | GI50 [1] | GI50 [2] | GI50 [3] | GI50 [4] | GI50 [5] | GI50 [6] | GI50 [7] | GI50 [8] | GI50 [9] | GI50 [10] | GI50 [11] | GI50 [12] | GI50 [13] | GI50 [14] | GI50 [15] | GI50 [16] | GI50 [17] | GI50 [18] | GI50 [19] | GI50 [20]
1 | Nc1[nH]c(=S)[nH]c(=O)c1/N=N/c1c(Br)cc(S(N)(=O)=O)cc1Br | > 100 µM (inactive) | > 100 µM (inactive) | > 100 µM (inactive) | > 100 µM (inactive) | > 100 µM (inactive) | > 100 µM (inactive) | > 100 µM (inactive) | > 100 µM (inactive) | > 100 µM (inactive) | > 100 µM (inactive) | > 100 µM (inactive) | > 100 µM (inactive) | > 100 µM (inactive) | > 100 µM (inactive) | > 100 µM (inactive) | > 100 µM (inactive) | > 100 µM (inactive) | > 100 µM (inactive) | > 100 µM (inactive) | 
2 | Cc1ccc(/N=N/C(=N/NC(=O)c2cc(Cl)ccc2O)c2ccc(N(CCC#N)CCC#N)cc2C)cc1 | 12.1 µM (inactive) | 27.5 µM (inactive) | 12.4 µM (inactive) | 21.5 µM (inactive) | 25.3 µM (inactive) | 34 µM (inactive) | 17.1 µM (inactive) | 11.1 µM (inactive) | 23.8 µM (inactive) | 41.5 µM (inactive) | 20.7 µM (inactive) | 8.36 µM (inactive) |  | 16.8 µM (inactive) | 25.5 µM (inactive) |  | 7.29 µM (inactive) | 18.2 µM (inactive) | 13.2 µM (inactive) | 24.1 µM (inactive)
3 | O=C1C(N2CCCC2)=CC(=O)c2c(O)c(N3CCCC3)c(Cl)c(O)c21 | > 10 µM (inactive) | > 10 µM (inactive) | > 10 µM (inactive) | > 10 µM (inactive) | > 10 µM (inactive) | > 10 µM (inactive) | > 10 µM (inactive) | > 10 µM (inactive) | > 10 µM (inactive) |  |  | > 10 µM (inactive) | > 10 µM (inactive) | > 10 µM (inactive) | > 10 µM (inactive) | > 10 µM (inactive) | > 10 µM (inactive) | > 10 µM (inactive) | > 10 µM (inactive) | > 10 µM (inactive)
4 | Cn1cnnc1SC(F)(F)c1nc2ccccc2o1 | > 100 µM (inactive) | > 100 µM (inactive) | > 100 µM (inactive) |  | > 100 µM (inactive) | > 100 µM (inactive) | > 100 µM (inactive) | > 100 µM (inactive) | > 100 µM (inactive) | > 100 µM (inactive) | > 100 µM (inactive) | > 100 µM (inactive) | > 100 µM (inactive) | > 100 µM (inactive) |  | > 100 µM (inactive) | > 100 µM (inactive) | > 100 µM (inactive) | > 100 µM (inactive) | > 100 µM (inactive)
5 | O=C(/C=C/c1ccc(Cl)cc1)c1nc2ccccc2[nH]1 | 37.8 µM (inactive) | 32.9 µM (inactive) | 16.6 µM (inactive) | 25.7 µM (inactive) | 23.1 µM (inactive) | 12.2 µM (inactive) | 27.5 µM (inactive) | 12.9 µM (inactive) | 19 µM (inactive) | 95.7 µM (inactive) | 34.8 µM (inactive) | 2.19 µM (inactive) | 32.4 µM (inactive) | 40.2 µM (inactive) | 34.6 µM (inactive) | 13.4 µM (inactive) | 5.78 µM (inactive) |  | 29 µM (inactive) | 12.8 µM (inactive)
6 | CN(C)c1c(C2CC(O)C(CO)O2)c(=O)c1=O (centres undefined) | > 100 µM (inactive) | > 100 µM (inactive) |  | > 100 µM (inactive) | > 100 µM (inactive) | > 100 µM (inactive) | 77.1 µM (inactive) | > 100 µM (inactive) | > 100 µM (inactive) | > 100 µM (inactive) | > 100 µM (inactive) | > 100 µM (inactive) | > 100 µM (inactive) |  | > 100 µM (inactive) | > 100 µM (inactive) | > 100 µM (inactive) | > 100 µM (inactive) | > 100 µM (inactive) | > 100 µM (inactive)
7 | COc1cccc(-c2cc(O)c3cc(C)cnc3n2)c1 | 0.0904 µM (active) | > 100 µM (inactive) | 0.0449 µM (active) |  | 0.415 µM (active) | 0.0122 µM (active) | 0.0757 µM (active) | 0.049 µM (active) | > 67.1 µM (inactive) | 0.82 µM (active) | 0.0658 µM (active) | 0.0421 µM (active) | 0.0787 µM (active) | 0.0787 µM (active) | 0.0667 µM (active) | 0.06 µM (active) | > 100 µM (inactive) | 0.0473 µM (active) | > 100 µM (inactive) | 1.51 µM (inactive)
